According to publication PMC11035632, “Discovery of gefitinib-1,2,3-triazole derivatives against lung cancer via inducing apoptosis and inhibiting the colony formation” (Scientific Reports, 2024):

How the values were obtained:
[1] = test system: NCI-H1299 cells; assay: CCK-8 assay for cell proliferation and cytotoxicity, NCI-H1299; format: cell-based; details: Homo sapiens, CCK-8, 48 h
Procedure: (§1) Three types of lung cells were seeded into 96-well plate at a density of 5 × 10^3 cells per well at logarithmic growth phase and cultured in 37 °C. […] After that, cell viability was determined according to the instruction of the CCK-8 assay. Next, 10 μL of CCK-8 solution was added to each well of the plate and incubate the plate for 1–4 h in the incubator. The absorbance was measured at 450 nm using a microplate reader (Bio-Tek). The percentage of viable cells was measured using the following formula where three independent experiments were performed: [(A450 sample − A450blank)/(A450 control − A450blank)] × 100%.

[2] = test system: A549 cells; assay: CCK-8 assay for cell proliferation and cytotoxicity, A549; format: cell-based; details: Homo sapiens, CCK-8, 48 h
Procedure: A549 cells were cultured in a humidified incubator at 37 °C with 5% CO2 in Ham’s F-12 K (PM150910, Procell) supplemented with 10% FBS and 1% Penicillin Streptomycin.
as §1

[3] = test system: NCI-H1437 cells; assay: CCK-8 assay for cell proliferation and cytotoxicity, NCI-H1437; format: cell-based; details: Homo sapiens, CCK-8, 48 h, read-out: IC50 1437
Procedure: as §1

[4] = test system: L02 cells; assay: Cytotoxicity / survival rate in normal hepatocytes L02; format: cell-based; details: for Survival rate %, 48 h: L02 cells
[5] = test system: H1299 cells; assay: Flow cytometry detection of apoptosis (Annexin V-EGFP/PI); format: cell-based, human; details: 48 h
Procedure: H1299 cells were treated with different concentrations of 7a and 7j for 48 h. The cells were stained with Annexin-V and PI, and the proportion of apoptotic cells was detected using flow cytometry.
H1299 cells were seeded in a 6-well plate at a density of 1 × 10^5 cells/well and incubated for 24 h. On the following day, the medium was replaced with fresh medium containing 7a or 7j (2, 4 and 8 μmol/L) and cells were incubated for an additional 48 h. Cell apoptosis was detected using Annexin V-EGFP/PI apoptosis detection Kit by flow cytometry. Subsequently, 5 µl of […] Annexin V and 10 µl of PI was added to the cell suspension, gently vortexed, and incubated at room temperature in the dark for 20 min, then single-cell suspension was prepared followed by flow cytometry (BD Accuri™ C6 Plus).

[6] = test system: H1299 cells; assay: DAPI staining for cell apoptosis; format: cell-based, human; details: H1299, 2, 4 and 8 μmol/L, 48 h
Procedure: In order to further verify the apoptotic activity induced by 7a and 7j in lung cancer cells, H1299 cells were treated with different concentrations of compounds 7a and 7j for 48 h, followed by DAPI staining. […] As the drug concentration increased, nuclear staining intensified, and even nuclear condensation and fragmentation phenomena were observed.
H1299 (1.5 × 10^4 ~ 2 × 10^4 /well) cells were seeded in 24-well plates for 24 h, and then treated with 7a or 7j at the concentrations of 2,4 and 8 μmol/L for 48 h., the cells were fixed for 30 min at room temperature in 4% paraformaldehyde and washed 3 times in PBS. Finally, every well was stained with DAPI (10 µg/mL, C0065, Solarbio) at room temperature for 30 min, and washed at least three times in PBS. The fluorescence microscope was used to observe the morphological changes of cell nuclei.

[7] = test system: H1299 cells; assay: Wound healing assay; format: cell-based, human; details: 24 h
Procedure: H1299 cells were seeded in a 6-well plate, When the cell confluency reached 95%, a wound line was scratched using a 200 µl pipette tip, and then washed three times, fresh medium containing 7a or 7j (2, 4 and 8 μmol/L) was added, and the plate was incubated at 37 °C with 5% CO2. All the images were captured at 0 h and 24 h under an inverted microscope, and the quantification of scratches was analysed using Image J.

[8] = test system: H1299 cells; assay: Transwell migration assay; format: cell-based, human; details: H1299, 2, 4 and 8 μmol/L, 24 h, vs normal control, p < 0.01
Procedure: Transwell chamber migration assay is another important method to assess cell migration ability. Tumor cells are seeded in the chamber, and the number of tumor cells that pass through the membrane is counted to evaluate the migration ability of tumor cells.
Transwell assay was used to determine the migration ability of H1299 cells. Cells were starved in serum-free RPMI 1640 medium for 24 h, then detached and resuspended in serum-free RPMI 1640 medium. 5 × 10^5 cells/mL were inoculated into the upper chamber of a 24-well Transwell plate (Corning Inc., United States), with a volume of 100 µl per well. Then, 100 µL serum-free medium containing 7a or 7j (2, 4 and 8 μmol/L) was added to the upper chamber and the lower chamber was filled with 700 µL medium containing 20% FBS. After incubation for 24 h, H1299 cells on the upper membrane of the transwell were wiped off. The migrated cells were treated with 4% paraformaldehyde for 20 min, stained with 0.1% crystal violet for 20 min and washed three times with PBS. The number of H1299 cells that migrated to the underside of the membrane was counted under the inverted fluorescence microscope. Three randomly selected areas from each transwell were photographed and calculated using Image J.

[9] = test system: H1299 cells; assay: Colony formation assay; format: cell-based, human; details: 7 days
Source text: The colony formation assay is an important method for evaluating the ability of adherent cells to proliferate and form colonies on a plate, and it is widely used to assess cell proliferation. We also employed the colony formation assay to further confirm that compounds 7a and 7j can inhibit the proliferation of lung cancer cells, as shown in Fig. 5. After treating lung cancer cells with low, medium, and high concentrations (1, 2, 4 μmol/L) of compounds for 7 days, the number of cell colonies was counted to analyze the proliferation inhibition rate.
H1299 cells were seeded in six-well plates at a density of 500 cells per well and treated with 7a or 7j (1, 2 and 4 μmol/L) for 7 days. Then, cells were per-fixed with 4% paraformaldehyde for 30 min, stained with 0.1% Crystal violet for 15 min, and then washed with pure water. Taking a picture after the plates were air-dry. The clone formations number was counted with Image J.

[10] = test system: Bcl-2, caspase9, Cleaved-Caspase3, Cleaved-PARP, MMP9 in H1299 cells; assay: Western blot of apoptosis- and migration-related proteins; format: cell-based, human; details: H1299, 4, 8 or 16 μM, 48 h
Source text: We conducted an in-depth investigation into the mechanism of apoptosis induced by compounds 7a and 7j. The Bcl-2 protein family is located upstream of the apoptosis signaling pathway. Bcl-2 proteins play an anti-apoptotic role by inhibiting the release of cytochrome C (cyt-c) from mitochondria. Previous literature reports that many anticancer drugs induce apoptosis by downregulating Bcl-2 expression. During apoptosis, the expression of Bcl-2 is inhibited, cyt-c is released, and it binds with the apoptotic protease activation factor to form the apoptosome. This triggers a cascade reaction of Caspase family proteins, with apoptosome promoting the activation of Caspase9. Activated Caspase9 then activates Caspase3, forming the Caspase3 cleavage body, which further activates downstream PARP protein, ultimately promoting cell apoptosis. […] After treating H1299 cells with different concentrations of compounds for 48 h, cell proteins were extracted, and western blot was used to detect the expression changes of apoptosis-related proteins.
Firstly, H1299 cells were treated with different concentrations concentrations of 7a and 7j at 4, 8 and 16 μmol/L for 48 h, cells were harvested using RIPA lysate (R0010, Solarbio) and centrifuged at 12,000 rpm for 15 min at 4 °C, and then the concentration of total protein was measured and taken from the supernatant. Protein was separated by 12% SDS–polyacrylamide gel electrophoresis and transferred to nitrocellulose filter membrane. after blocking in 5% milk for 2 h, the membranes were incubated with specific primary antibody at 4 °C overnight. Next day, NC membranes were incubated for 1 h at room temperature with appropriate secondary antibodies, and then Protein bands was visualizing by chemiluminescence detection (ECL kit, Genview).

Work on `COc1cc2ncnc(Nc3cccc(-c4cn(Cc5ccc(Br)cc5F)nn4)c3)c2cc1OCCCN1CCOCC1` [Compound 7b] yielded an IC50 [1] of 4.6 ± 0.16 µM, an IC50 [2] of 5.28 ± 0.2 µM and an IC50 [3] of 3.65 ± 0.04 µM.

Compound `COc1cc2ncnc(Nc3cccc(-c4cn(Cc5ccc(Cl)c(F)c5)nn4)c3)c2cc1OCCCN1CCOCC1` [Compound 7c] has an IC50 [1] of 6.24 ± 0.32 µM, an IC50 [2] of 5.68 ± 0.14 µM and an IC50 [3] of 3.08 ± 0.47 µM.

`COc1cc2ncnc(Nc3cccc(-c4cn(Cc5c(F)cccc5Cl)nn4)c3)c2cc1OCCCN1CCOCC1` [Compound 7d] gave an IC50 [1] of 6.04 ± 0.41 µM, an IC50 [2] of 8.5 ± 0.41 µM and an IC50 [3] of 4.83 ± 0.16 µM.

`COc1cc2ncnc(Nc3cccc(-c4cn(Cc5ccccc5[N+](=O)[O-])nn4)c3)c2cc1OCCCN1CCOCC1` [Compound 7e] showed an IC50 [1] of 5.81 ± 0.12 µM, an IC50 [2] of 4.38 ± 0.07 µM and an IC50 [3] of 2.22 ± 0.18 µM.

`COc1cc2ncnc(Nc3cccc(-c4cn(Cc5ccc([N+](=O)[O-])cc5)nn4)c3)c2cc1OCCCN1CCOCC1` [Compound 7f] showed an IC50 [1] of 5.65 ± 0.16 µM, an IC50 [2] of 16.4 ± 1.07 µM and an IC50 [3] of 3.95 ± 0.45 µM.

For `COc1cc2ncnc(Nc3cccc(-c4cn(Cc5ccccc5F)nn4)c3)c2cc1OCCCN1CCOCC1` [Compound 7g, N-(3-(1-(2-fluorobenzyl)-1H-1,2,3-triazol-4-yl)phenyl)-7-methoxy-6-(3-morpholinopropoxy)quinazolin-4-amine], the IC50 [1] was 5.97 ± 0.36 µM, the IC50 [2] was 6.23 ± 0.12 µM and the IC50 [3] was 1.66 ± 0.18 µM.

For `COc1cc2ncnc(Nc3cccc(-c4cn(Cc5ccc(C(F)(F)F)cc5)nn4)c3)c2cc1OCCCN1CCOCC1` [Compound 7h], the IC50 [1] was 4.89 ± 0.16 µM, the IC50 [2] was 7.13 ± 1.21 µM and the IC50 [3] was 5.21 ± 0.3 µM.

Work on `COc1cc2ncnc(Nc3cccc(-c4cn(Cc5ccc(I)cc5)nn4)c3)c2cc1OCCCN1CCOCC1` [Compound 7i] yielded an IC50 [1] of 5.6 ± 0.09 µM, an IC50 [2] of 5.76 ± 0.62 µM and an IC50 [3] of 4.69 ± 0.23 µM.

`COc1cc2ncnc(Nc3cccc(-c4cn(Cc5cccc(Cl)c5)nn4)c3)c2cc1OCCCN1CCOCC1` [Compound 7j] was tested, and the IC50 [1] was 3.84 ± 0.22 µM, the IC50 [2] was 3.86 ± 0.38 µM and the IC50 [3] was 1.69 ± 0.25 µM. For the same compound, the IC50 ([4]; Homo sapiens, normal hepatocytes L02) was 17.7 ± 0.52 µM, the “Survival rate %, 48 h” value ([4]; 2 μM) was 94.49 ± 4.11% and the “Survival rate %, 48 h” value ([4]; 4 μM) was 89.12 ± 5.50%. The “Survival rate %, 48 h” value ([4]; 8 μM) was 75.59 ± 2.65%, the “Survival rate %, 48 h” value ([4]; 16 μM) was 59.14 ± 1.54% and the “Survival rate %, 48 h” value ([4]; 32 μM) was 24.48 ± 3.68%. For the same compound, the “total apoptotic cell proportion” value ([5]; H1299, 2 μmol/L) was 14.97 ± 1.54%, the “total apoptotic cell proportion” value ([5]; H1299, 4 μmol/L) was 27.07 ± 2.77% and the “total apoptotic cell proportion” value ([5]; H1299, 8 μmol/L) was 65.77 ± 2.93%. For the same compound, the “apoptotic morphology by DAPI staining” value [6] was “exhibited typical apoptotic features”, the migration closure rate ([7]; H1299, 2 μmol/L) was 72.57 ± 3.43% and the migration closure rate ([7]; H1299, 4 μmol/L) was 60.91 ± 8.48%. The migration closure rate ([7]; H1299, 8 μmol/L) was 48.88 ± 3.23%, the “number of cells passing through the membrane to the lower surface of the chamber” value [8] was “significantly decreased” and the “formation of H1299 cell colonies” value ([9]; 1 μmol/L) was “markedly inhibit”. For the same compound, the colony formation ([9]; H1299, 4 μmol/L) was “almost completely suppressed”, the “Bcl-2 protein expression level” value [10] was “decrease” and the “Cleaved-Caspase3 protein expression level” value [10] was “increased”. The “Cleaved-PARP protein expression level” value [10] was “increased”, the MMP9 protein expression [10] was “downregulated” and the “caspase9 protein expression level” value [10] was “decrease”.
